Source: US20200369618A1, “ASYMMETRIC DERIVATIVES OF P[…] THE DIN[…], PROCESS OF PREPARING AND USE THEREOF” (NEARMEDIC INTERNATIONAL LIMITED, priority 2017, published 2020)
≈ marks a conversion by molar mass, not a printed value.

Experiments:
[1] = Assessment of cytotoxic properties (MTS assay, 48 h); type: cell-based; settings: dog, MDCK ECAAC cells, read-out: CC50 (toxic dose of the drug, causing the death of 50% of the monolayer cells)
Method: Assessment of cytotoxic properties of asymmetric gossypol derivatives.
In 96-well flat-bottomed test plates, MDCK ECAAC (Sigma cat. ? 85011435) cells are placed at 18,000 cells per well in a volume of 100 μl of complete medium containing 10% fetal calf serum (FCS). Cells are cultured for 24 hours in CO2-incubator at 37° C. Then the liquid medium is removed from the wells of the test plates, leaving the immobilized living cells. Then wells are once washed with the 100 μl of serumless media. The medium is replaced with 100 μl per well of the dilutions of test compounds in support medium with 2% of serum, in 4 replicates. Each plate is prepared with 6 control wells containing 100 μl of fresh support medium without test compounds. The plates are incubated in CO2-incubator at 37° C. for 48 hours. Then liquid contents are removed from the wells, and 100 μl of support medium and 20 μl of MTS (Promega, cat. ? G3581) are added and mixed. The cells are incubated for 3 hours in CO2-incubator at 37° C., and the relative optical density of the solution in each well is measured with a plate spectrophotometer at 492 nm against its absorption at a reference wavelength of 620 nm. The cytotoxicity (CC50) is calculated using the standard method.

[2] = tested on: influenza virus A/Puerto Rico/8/34 (H1N1); experiment: organism not typed; type: cell-based; settings: for SI (selectivity index, SI=CC50/IC50): CC50 in MDCK cells / IC50 against influenza A/Puerto Rico/8/34 (H1N1); for IC50: MDCK cells, influenza A/Puerto Rico/8/34 (H1N1), 48 hours, read-out: IC50 (compound concentration, at which 50% of virus titer is inhibited)

SMILES: Cc1cc2c(C(C)C)c(O)c(O)cc2c(O)c1-c1c(C)cc2c(C(C)C)c(O)c(O)c(C=O)c2c1O (racemic) [I, 1,1′,6,6′,7,7′-hexahydroxy-5,5′-diisopropyl-3,3′-dimethyl-2,2′-binaphthalene-8-carbaldehyde]
- CC50 at 48 h [1]: 5.5 µg/mL (≈ 11.2 µM)
- SI (selectivity index, SI=CC50/IC50) [2]: 29,36
- IC50 [2]: 0.2 µg/mL (≈ 0.408 µM)

SMILES: Cc1cc2c(C(C)C)c(O)c(O)c(C=O)c2c(O)c1-c1c(C)cc2c(C(C)C)c(O)c(O)c(C=O)c2c1O [Gossypol, gossypol, reference compound]
- CC50 at 48 h [1]: 4 µg/mL (≈ 7.71 µM)
- SI (selectivity index, SI=CC50/IC50) [2]: 3,24
- IC50 [2]: 1.2 µg/mL (≈ 2.31 µM)

SMILES: CC1=C(C2=C(C)C(=O)c3c(c(C=O)c(O)c(O)c3C(C)C)C2=O)C(=O)c2cc(O)c(O)c(C(C)C)c2C1=O [II, 6,6′,7,7′-tetrahydroxy-5,5′-diisopropyl-3,3′-dimethyl-1,1′,4,4′-tetraoxo-1,1′,4,4′-tetrahydro-2,2′-binaphthalene-8-carbaldehyde]
- CC50 at 48 h [1]: 3.8 µg/mL (≈ 7.33 µM)
- SI (selectivity index, SI=CC50/IC50) [2]: 4,75
- IC50 [2]: 0.8 µg/mL (≈ 1.54 µM)
